Values quoted from earlier work, collected in PubChem BioAssay AID1259409 (Chemical Carcinogenesis Research Information System (CCRIS), 2018).
Several values for one entry are separate records, joined by “and”; a condition that tells them apart may be missing. Identical values can stand only once.

System: rodent chemically induced tumor inhibition, incidence and multiplicity
Assay: CCRIS tumor inhibitor studies
Conditions: Species: RAT, Promoter: NONE USED

## CN1C(C(=O)Nc2ccccn2)=C(O)c2ccccc2S1(=O)=O
Carcinogen: AZOXYMETHANE, 25843-45-2, Dose [Inhibitor]: 0, 400 PPM IN DIET BEGINNING 1 WK PRIOR TO CARCINOGEN TREATMENT FOR DURATION OF STUDY (STUDY DURATION: 54 WK), Route [Inhibitor]: ORAL, Strain/Sex: F344/MALE, Target Tissue: Type of Lesion: COLON: ADENOCARCINOMA, Dose [Carcinogen]: 15 MG/KG/BW 1/WK FOR 2 WK
  tumour outcome (control, treated, inhibition, significance): 58%, 19%, 67%, p<0.01
Carcinogen: AZOXYMETHANE, 25843-45-2, Dose [Inhibitor]: 0, 400 PPM IN DIET BEGINNING 1 WK PRIOR TO CARCINOGEN TREATMENT FOR DURATION OF STUDY (STUDY DURATION: 54 WK), Route [Inhibitor]: ORAL, Strain/Sex: F344/MALE, Target Tissue: Type of Lesion: COLON: ADENOMA, Dose [Carcinogen]: 15 MG/KG/BW 1/WK FOR 2 WK
  tumour outcome (control, treated, inhibition, significance): 6%, 3%, 50%, not calculated
Carcinogen: AZOXYMETHANE, 25843-45-2, Dose [Inhibitor]: 0, 400 PPM IN DIET BEGINNING PRIOR TO CARCINOGEN DOSE AND CONTINUING FOR DURATION OF STUDY (STUDY DURATION: 54 WK), Route [Inhibitor]: ORAL, Strain/Sex: F344/MALE, Target Tissue: Type of Lesion: COLON: ADENOCARCINOMA, Dose [Carcinogen]: 15 MG/KG 1/WK FOR 2 WK
  tumour outcome (control, treated, inhibition, significance): 72%, 22%, 69%, p<0.001
Carcinogen: AZOXYMETHANE, 25843-45-2, Dose [Inhibitor]: 0, 400 PPM IN DIET BEGINNING PRIOR TO CARCINOGEN DOSE AND CONTINUING FOR DURATION OF STUDY (STUDY DURATION: 54 WK), Route [Inhibitor]: ORAL, Strain/Sex: F344/MALE, Target Tissue: Type of Lesion: COLON: ADENOMA, Dose [Carcinogen]: 15 MG/KG 1/WK FOR 2 WK
  tumour outcome (control, treated, inhibition, significance): 14%, 6%, 57%, not calculated
Carcinogen: AZOXYMETHANE, 25843-45-2, Dose [Inhibitor]: 0, 400 PPM IN DIET BEGINNING PRIOR TO CARCINOGEN DOSE AND CONTINUING FOR DURATION OF STUDY (STUDY DURATION: 54 WK), Route [Inhibitor]: ORAL, Strain/Sex: F344/MALE, Target Tissue: Type of Lesion: SMALL INTESTINE: ADENOCARCINOMA, Dose [Carcinogen]: 15 MG/KG 1/WK FOR 2 WK
  tumour outcome (control, treated, inhibition, significance): 50%, 8%, 84%, p<0.001
Carcinogen: AZOXYMETHANE, 25843-45-2, Dose [Inhibitor]: 0, 400 PPM IN DIET BEGINNING PRIOR TO CARCINOGEN DOSE AND CONTINUING FOR DURATION OF STUDY (STUDY DURATION: 54 WK), Route [Inhibitor]: ORAL, Strain/Sex: F344/MALE, Target Tissue: Type of Lesion: SMALL INTESTINE: ADENOMA, Dose [Carcinogen]: 15 MG/KG 1/WK FOR 2 WK
  tumour outcome (control, treated, inhibition, significance): 3%, 0%, 100%, not calculated
Carcinogen: AZOXYMETHANE, 25843-45-2, Dose [Inhibitor]: 0, 400 PPM IN DIET FOR 56 WK BEGINNING 2 WK PRIOR TO CARCINOGEN TREATMENT (STUDY DURATION: 56 WK), Route [Inhibitor]: ORAL, Strain/Sex: F344/MALE, Target Tissue: Type of Lesion: COLON(DISTAL): TUMOR, Dose [Carcinogen]: 15 MG/KG 1/WK FOR 2 WK
  tumour outcome (control, treated, inhibition, significance): 52%, 22%, 58%, p<0.05
Carcinogen: AZOXYMETHANE, 25843-45-2, Dose [Inhibitor]: 0, 400 PPM IN DIET FOR 56 WK BEGINNING 2 WK PRIOR TO CARCINOGEN TREATMENT (STUDY DURATION: 56 WK), Route [Inhibitor]: ORAL, Strain/Sex: F344/MALE, Target Tissue: Type of Lesion: COLON(PROXIMAL): TUMOR, Dose [Carcinogen]: 15 MG/KG 1/WK FOR 2 WK
  tumour outcome (control, treated, inhibition, significance): 38%, 7%, 82%, p<0.001
Carcinogen: AZOXYMETHANE, 25843-45-2, Dose [Inhibitor]: 0, 400 PPM IN DIET FOR 56 WK BEGINNING 2 WK PRIOR TO CARCINOGEN TREATMENT (STUDY DURATION: 56 WK), Route [Inhibitor]: ORAL, Strain/Sex: F344/MALE, Target Tissue: Type of Lesion: SMALL INTESTINE(DISTAL): TUMOR, Dose [Carcinogen]: 15 MG/KG 1/WK FOR 2 WK
  tumour outcome (control, treated, inhibition, significance): 12%, 9%, 25%, not significant
Carcinogen: AZOXYMETHANE, 25843-45-2, Dose [Inhibitor]: 0, 400 PPM IN DIET FOR 56 WK BEGINNING 2 WK PRIOR TO CARCINOGEN TREATMENT (STUDY DURATION: 56 WK), Route [Inhibitor]: ORAL, Strain/Sex: F344/MALE, Target Tissue: Type of Lesion: SMALL INTESTINE(PROXIMAL): TUMOR, Dose [Carcinogen]: 15 MG/KG 1/WK FOR 2 WK
  tumour outcome (control, treated, inhibition, significance): 33%, 9%, 73%, p<0.05
Carcinogen: INTRARECTAL, Dose [Inhibitor]: N-METHYLNITROSOUREA, 684-93-5, Route [Inhibitor]: 0, 130 MG/KG VEGETABLE DIET (2.5 MG/D) BEGINNING 7 D POST LAST CARCINOGEN TREATMENT AND CONTINUING FOR STUDY DURATION (S, Strain/Sex: CD-1/MALE, Target Tissue: Type of Lesion: INTESTINE: TUMOR
  tumour outcome (control, treated, inhibition, significance): 9/9 (100%), 5/10 (50%), 50%, not calculated
Carcinogen: METHYLAZOXYMETHANOL, 590-96-5, Dose [Inhibitor]: 8 MG/KG BW/D IN DIET FOR 19 WK STARTING 7 D AFTER CARCINOGEN TREATMENT AND CONTINUING FOR DURATION OF STUDY (STUDY DURAT, Route [Inhibitor]: ORAL, Strain/Sex: SPRAGUE-DAWLEY/MALE, Target Tissue: Type of Lesion: INTESTINES: TUMOR, Dose [Carcinogen]: 30 MG/KG BW ONCE
  tumour outcome (control, treated, inhibition, significance): 9/9 (100%), 4/10 (40%), 60%, not calculated
Carcinogen: METHYLAZOXYMETHANOL, 590-96-5, Dose [Inhibitor]: 8.25 MG/KG BW/D IN DIET FOR 19 WK STARTING 7 D AFTER CARCINOGEN TREATMENT AND CONTINUING FOR DURATION OF STUDY (STUDY DU, Route [Inhibitor]: ORAL, Strain/Sex: SPRAGUE-DAWLEY/MALE, Target Tissue: Type of Lesion: INTESTINES: TUMOR, Dose [Carcinogen]: 30 MG/KG BW ONCE
  tumour outcome (control, treated, inhibition, significance): 9/10 (90%), 2/10 (20%), 78%, not calculated and 9/10 (90%), 7/11 (64%), 29%, not calculated
Carcinogen: METHYLAZOXYMETHANOL, 590-96-5, Dose [Inhibitor]: 12.5 MG/KG BW/D IN DIET FOR 19 WK STARTING 7 D AFTER CARCINOGEN TREATMENT AND CONTINUING FOR DURATION OF STUDY (STUDY DU, Route [Inhibitor]: ORAL, Strain/Sex: SPRAGUE-DAWLEY/MALE, Target Tissue: Type of Lesion: INTESTINES: TUMOR, Dose [Carcinogen]: 30 MG/KG BW ONCE
  tumour outcome (control, treated, inhibition, significance): 8/9 (88%), 3/9 (33%), 63%, not calculated
